The target in the assay is T1, soluble catalytic domain fragment of human HMG reductase (Homo sapiens, UniProt P04035).
T1 construct: composed of insoluble transmembrane segment and soluble catalytic domain; purchased Sigma-Aldrich CS 1090
T1 sequence (P04035 340-888 limits assumed): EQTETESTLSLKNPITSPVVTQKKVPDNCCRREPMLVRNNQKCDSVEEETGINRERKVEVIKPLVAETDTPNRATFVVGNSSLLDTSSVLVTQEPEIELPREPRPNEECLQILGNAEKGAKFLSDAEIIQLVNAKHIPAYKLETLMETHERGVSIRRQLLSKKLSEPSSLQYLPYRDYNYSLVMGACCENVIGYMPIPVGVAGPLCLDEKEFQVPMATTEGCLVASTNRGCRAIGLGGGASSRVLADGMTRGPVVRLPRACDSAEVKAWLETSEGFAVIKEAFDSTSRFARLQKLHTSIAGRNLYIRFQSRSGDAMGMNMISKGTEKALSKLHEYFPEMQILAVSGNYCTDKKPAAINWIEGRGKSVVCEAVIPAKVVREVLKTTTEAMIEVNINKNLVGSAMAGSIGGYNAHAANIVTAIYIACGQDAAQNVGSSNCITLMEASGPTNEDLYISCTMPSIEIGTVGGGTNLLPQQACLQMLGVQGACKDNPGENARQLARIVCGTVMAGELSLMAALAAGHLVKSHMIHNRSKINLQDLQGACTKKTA
Put plainly: HMG-Co-A reductase inhibition activity, dose-response curves (Sigma-Aldrich assay kit, absorbance at 340 nm). The assay is classed as biochemical. The note with it: for IC50: NADP(H) 250 μM, sub-saturating NADP(H) and coenzyme A, decrease in absorbance at 340 nm, read-out: IC50 μM error; for Hill coefficient: fit of the dose-response curve; for potency relative to pravastatin in inhibiting HMG-CO-A-reductase enzyme: fraction of the potency of pravastatin. An excerpt:
SigmaAldrich. […] In: catalog number CS 1090. […].com/catalog/product/[…]®ion=HR. […] Holdgate G, Ward […]. […] Louis-Flamberg […], Bryan D L, Leber J, Elliott […] et al. […], Buchanan […]. Crystal structure of the catalytic portion of human HMG-CoA reductase: insights into regulation of activity and catalysis. […] Motulsky H, Christopoulos A. Fitting Models to Biological Data Using Linear and Nonlinear Regression: A Practical Guide to Curve Fitting Oxford University Press, USA; 1 edition 2004. […] Briefly, the dose-response curves have been measured using soluble catalytic domain fragment of human HMG reductase. […] The activity was measured by following decrease in a sample's absorbance at 340 nm caused by enzymatic oxidation of NADP(H) in presence of coenzyme A. […] NADP(H) concentration in the assay mix was adjusted to 250 μM. […] Stock solutions of Na salts of EPA-statin, ALA-statin were prepared in assay buffer in concentration of 50 mM, and subsequently diluted to lower concentrations in the same buffer as needed.

A word on the IC50: it is the midpoint of a concentration-inhibition curve. The Hill coefficient is a measure of the steepness of the concentration-response curve.

The structures appear in SMILES notation. Counter-ions that a name gives are not always drawn.

Take `CC/C=C\C/C=C\C/C=C\CCCCCCC[C@@H](O)C[C@@H](O)CC(=O)O` [ALA-statin, Na salt, Sodium (3R,5R,13Z,16Z,19Z)-3,5-dihydroxydocosa-13,16,19-trienoate]: the IC50 amounted to 25 ± 7 µM, the Hill coefficient came to 1.3 ± 0.3 and the “potency relative to pravastatin in inhibiting HMG-CO-A-reductase enzyme” value was “about 1/20”.
For `CC/C=C\C/C=C\C/C=C\C/C=C\C/C=C\CCC[C@@H](O)C[C@@H](O)CC(=O)[O-].[Na+]` [EPA-statin, Na salt, Sodium (3R,5R,9Z,12Z,15Z,18Z,21Z)-3,5-dihydroxytetracosa-9,12,15,18,21-pentaenoate] the same measures were 94 ± 8 µM, 1.6 ± 0.6 and “about 1/100”.

(Values after patent US9540307B2, “Statins of omega-3 polyunsaturated acids for treating hypercholesterolemia” (Jiva Pharma, Inc., priority 2014, dated 2017).)
